Data set [1] relates to hCD39 protein. Briefly: hCD39 protein expression in primary human CD8+ and CD4+ T cells after oligonucleotide removal (flow cytometry). Format: cell-based. Conditions: 10 μM for six days with anti-CD3, compared to untreated control cells. The protocol: Thereafter, oligonucleotides and anti-CD3 were removed and hCD39 protein expression was analyzed by flow cytometry three, six, and eleven days after oligonucleotide removal. CD39 protein expression is depicted as mean fluorescence intensity (MFI) and was calculated by subtracting the MFI of the unspecific isotype control from the MFI of CD39. Depicted is the mean of duplicate wells+/−SD.
A04040H had shown very potent activity in suppressing hCD39 expression on mRNA- and protein-level in human cancer cell lines. In the next step, its activity in primary human T cells was investigated. Furthermore, the persistence of the effects after antisense oligonucleotide removal was examined. Therefore, CD8^+ and CD4^+ T cells were isolated from peripheral blood and activated for a total treatment time of six days with anti-CD3 in the presence of 10 μM of the hCD39 specific antisense oligonucleotide A04040H (black column) or the control oligonucleotide S6 (white column), which is not complementary to any human mRNA. […] Thereafter, oligonucleotides were removed and hCD39 protein expression was analyzed three, six, and eleven days after oligonucleotide removal by flow cytometry (FIG. 9).

Another data set concerns human CD8+ T cells. Briefly: Proliferation and absolute cell numbers of human CD8+ T cells in presence or absence of extracellular ATP. Format: cell-based. The following applies: 5 μM oligonucleotide 5 days or 20 μM ARL67156 24 h. The protocol: FIG. 12A-12C depict human CD8^+ T cells which were labelled with cell proliferation dye, activated with anti-CD3 and treated with 5 μM of the antisense oligonucleotide A04040H (black column) or the control oligonucleotide S6 (white column) for a total treatment time of 5 days. In the vehicle control (striped column), cells were activated with anti-CD3 only. Subsequently, 400 μM of ATP or vehicle were added to cells on day 3 and day 4 after start of oligonucleotide treatment. Furthermore, as additional control, the small molecular CD39-inhibitor ARL67156 trisodium salt was added at 20 μM to cells on day 4, for an incubation time of 24 h (checked column). On day 5 after start of oligonucleotide treatment, (FIG. 12A) CD39 protein expression, (FIG. 12B) proliferation and (FIG. 12C) absolute cell numbers of CD8^+ T cells were analyzed using Flow Cytometry. Depicted is the mean of triplicate wells+/−SD.
In cancer, ATP is released from tumor cells for example after cell death induced by chemotherapy or radiation therapy. Since the CD39-CD73 axis plays an important role for T cell function the effects of A04040H on T cell proliferation in the presence or absence of extracellular ATP were investigated. Human CD8^+ T cells were labelled with cell proliferation dye, activated with anti-CD3 and treated with 5 μM of the antisense oligonucleotide A04040H or the control oligonucleotide S6 for a total treatment time of 5 days. In the vehicle control, cells were activated with anti-CD3 only. Subsequently, 400 μM of ATP or vehicle were added to cells on day 3 and day 4 after start of oligonucleotide treatment. Furthermore, as additional control, the small molecular CD39-inhibitor ARL67156 trisodium salt was added at 20 μM to cells on day 4 for an incubation time of 24 h. On day 5 after start of oligonucleotide treatment, CD39 protein expression, proliferation, and absolute cell numbers of CD8^+ T cells were analyzed using Flow Cytometry.

Data set [2] relates to hCD39 mRNA. In words: hCD39 mRNA knockdown efficacy screen in A-172 cells (single dose, gymnotic delivery, QuantiGene Singleplex). Format: cell-based, human. Conditions: 10 μM, 3 days. The method in brief:
(§1)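 Antisense oligonucleotides given once at 10 μM without transfection reagent (gymnotic) to HDLM-2 or A-172 cells for 3 days. hCD39 mRNA measured by QuantiGene Singleplex, normalized to HPRT1 and expressed relative to untreated cells; triplicate means.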

Data set [3] relates to hCD39 mRNA. Briefly: hCD39 mRNA knockdown efficacy screen in HDLM-2 cells (single dose, gymnotic delivery, QuantiGene Singleplex). Conditions: 10 μM, 3 days. Format: cell-based, human. Details: key to Relative hCD39 mRNA expression (compared to non-treated cells): *: values are below detection limit. The method in brief:
as §1

The next data set concerns HDLM-2 cells. In words: Viability of HDLM-2 cells (7-AAD, flow cytometry). The following applies: three, four and six days, different concentrations. Format: cell-based, human. The protocol: (§2) HDLM-2 cells were therefore treated with different concentrations of the respective antisense oligonucleotide for three, four and six days, respectively. Protein expression was analyzed by flow cytometry using the CD39 antibody (clone A1) and 7-AAD to investigate viability. […] Table 13summarizes protein knockdown efficiency of the selected human CD39 antisense oligonucleotides A04040H (SEQ ID No. 3) and A04045H (SEQ ID No. 4) in HDLM-2 cells at different time points: […]
A general note: Flow cytometry measures light scatter and fluorescence of single cells or particles in a stream.

Data set [4] has as its system hCD39 mRNA. In words: IC50 determination / concentration-dependent hCD39 mRNA knockdown in HDLM-2 cells. Format: cell-based, human. The following applies: for mRNA inhibition: HDLM-2, 3 days, Table 8. The method in brief:
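Antisense oligonucleotides applied to HDLM-2 cells for 3 days, titrated 10 μM down to 4.5 nM. hCD39 mRNA normalized to HPRT1 and expressed as residual level relative to untreated cells (100); mean of triplicates, IC50 from concentration-response.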

Data set [5] relates to hCD39 protein. Briefly: Concentration- and time-dependent hCD39 protein knockdown in HDLM-2 cells (flow cytometry). Format: cell-based, human. The following applies: for Inhibition [%] (Protein/mRNA): HDLM-2, CD39 protein. The procedure:
FIG. 8 depicts concentration- and time-dependent CD39 protein knockdown by A04040H (SEQ ID No. 3) and A04045H (SEQ ID No. 4). Analysis of CD39 protein expression by flow cytometry in HDML-2 cells is given after treatment with the indicated antisense oligonucleotides for 3, 4 and 6 days. As treatment control, cells were treated with neg1 for 3, 4 and 6 days at the indicated concentrations. Relative expression compared to untreated control cells (=1) is depicted.
as §2

Where [6] appears, read: absence of extracellular ATP, vs vehicle.
Where [7] appears, read: supplementation with 400 μM of ATP.
[8] abbreviates: second screening round, normalized to HPRT1.

l = locked nucleic acid (LNA); d = 2'-deoxy (DNA)

By IC50 is commonly meant the concentration that inhibits the measured activity by half.

As for “+T*+C*+T*A*T*C*G*T*G*A*T*G*T*T*+T*+C*+T (antisense TCTATCGTGATGTTTCT; sugars from the 5' end l3 d11 l3, all phosphorothioate, methylation of C not given here) [S6]”, the “hCD39 protein expression (MFI) after oligonucleotide removal” value in the data set on hCD39 protein [1] was “no inhibitory effect”. In the data set on human CD8+ T cells (setting [6]), the “absolute cell numbers of CD8+ T cells” value is “no differences” and the “proliferation of CD8+ T cells” value was “no differences”. In addition, in the data set on human CD8+ T cells (setting [7]), the “absolute numbers of CD8+ T cells” value is “significantly diminished” and the “proliferation of CD8+ T cells” value is reported as “reduced proliferation”. Moreover, the “Residual hCD39 mRNA expression relative to untreated cells (set as 1)” value with hCD39 mRNA [2] (third screening round) amounted to 0.95. The “Residual hCD39 mRNA expression relative to untreated cells (set as 1)” value in the data set on hCD39 mRNA [3] (third screening round) came out at 0.95.
For “+C*+A*+C*T*T*A*C*G*T*T*C*A*C*T*+A*+C*+C (antisense CACTTACGTTCACTACC; sugars from the 5' end l3 d11 l3, all phosphorothioate, methylation of C not given here) [A04045H]”, in the data set with HDLM-2 cells, the “viability of HDLM-2 cells” value is “did not affect viability”. For the same substance, the “Mean hCD39 mRNA expression (relative to untreated cells set as 1)” value in the data set on hCD39 mRNA [2] (first screening round, normalized to HPRT1) came out at 0.16. For the same substance, the “Relative hCD39 mRNA expression (compared to non-treated cells)” value with hCD39 mRNA [2] (setting [8]) is recorded as 0.08; in the data set on hCD39 mRNA [3] (setting [8]) it was “*”. Also, the mRNA inhibition in the data set on hCD39 mRNA [4] (0.0045 μM) amounted to 30.70%; in the data set on hCD39 mRNA [4] (0.013 μM), 33.03%; in the data set on hCD39 mRNA [4] (0.04 μM), 54.20%; in the data set on hCD39 mRNA [4] (0.12 μM) it was 73.62%; with hCD39 mRNA [4] (0.4 μM), 87.63%; in the data set with hCD39 mRNA [4] (1.1 μM), 95.07%. Moreover, the mRNA inhibition in the data set with hCD39 mRNA [4] (3.3 μM) worked out at 97.44%; with hCD39 mRNA [4] (10 μM) it was 99.19%. The “maximal target inhibition (hCD39 mRNA)” value with hCD39 mRNA [4] (HDLM-2 cells, compared to untreated cells, first IC50 determination) stood at 99.2%. In the data set on hCD39 mRNA [4] (HDLM-2 cells, hCD39 mRNA, 3 days, first screening round (Table 8)), this substance gave an IC50 of 66.8 nM. The “Inhibition [%] (Protein/mRNA)” value in the data set on hCD39 protein [5] (Day 3, 0.1 μM) turned out to be 38.81%; in the data set with hCD39 protein [5] (Day 3, 0.5 μM), 50.37%; in the data set on hCD39 protein [5] (Day 3, 1 μM) it was 51.53%; in the data set with hCD39 protein [5] (Day 3, 10 μM), 54.88%; in the data set on hCD39 protein [5] (Day 4, 0.1 μM) it was 61.88%; in the data set with hCD39 protein [5] (Day 4, 0.5 μM) it was 73.20%. For the same substance, the “Inhibition [%] (Protein/mRNA)” value in the data set with hCD39 protein [5] (Day 4, 1 μM) is reported as 75.55%; in the data set on hCD39 protein [5] (Day 4, 10 μM) it was 78.72%; in the data set on hCD39 protein [5] (Day 6, 0.1 μM), 80.24%; in the data set with hCD39 protein [5] (Day 6, 0.5 μM) it was 89.53%; in the data set with hCD39 protein [5] (Day 6, 1 μM), 90.46%; with hCD39 protein [5] (Day 6, 10 μM) it was 94.06%. Also, the “inhibition of hCD39 protein” value in the data set on hCD39 protein [5] (HDLM-2 cells, three, four and six days, different concentrations) is “potent inhibition of hCD39 protein after all indicated time points”. In addition, the “Mean hCD39 mRNA expression normalized to HPRT1 relative to untreated control = 1” value in the data set with hCD39 mRNA [3] (first screening round) is given as 0.09.

(Values after US11959083B2, “Immunosuppression-reverting oligonucleotides inhibiting the expression of CD39” (Secarna Pharmaceuticals GmbH & Co. KG, priority 2016, dated 2024).)
